For one assay, the system named is Lac5. Conditions: 100 mM acetate, 2.5 mM copper sulfate, O2; listed optimum pH 4.0, 50 °C.
The next assay concerns Lac3. Conditions: 100 mM acetate, 2.5 mM copper sulfate, O2; listed optimum pH 4.6, 60 °C.
In the next assay the test system is T1, Lac5-6.
T1 construct: gene Lac5 (GenBank PP987286)
To be noted: 100 mM acetate, 2.5 mM copper sulfate, O2; listed optimum pH 4.0, 55 °C.

A further assay deals with Lac4. To be noted: 100 mM acetate, 2.5 mM copper sulfate, O2; listed optimum pH 4.0, 55 °C.
Another assay concerns Lac9. Conditions: 100 mM acetate, 2.5 mM copper sulfate, O2; listed optimum pH 4.8, 55 °C.
The subject of another assay is Lac1. Conditions: 100 mM acetate, 2.5 mM copper sulfate, O2; listed optimum pH 5.0, 55 °C.

Molecules are shown by their SMILES.

In general, Km refers to the substrate concentration at which the rate is half of its maximum.

In the case of `CCn1c(=NN=c2sc3cc(S(=O)(=O)O)ccc3n2CC)sc2cc(S(=O)(=O)O)ccc21` [ABTS, 2,2′‐azinobis(3‑ethylbenzo‐6‑thiazolinesulfonic acid)], the Michaelis constant (Km) in the assay on Lac5 is 63 µM; with Lac3, 99 µM; in the assay on Lac5-6, 55 µM; in the assay with Lac4, 426 µM; in the assay with Lac9, 101 µM; in the assay on Lac1, 112 µM.

Values taken from publication PMC12226424, “Enhanced discovery of bacterial laccase‐like multicopper oxidase through computer simulation and metagenomic analysis of industrial wastewater” (FEBS Open Bio, 2025).
